Experimental data reported in patent US9669051B2, “Dietary fiber compositions with metformin, sitagliptin, or a combination thereof for the treatment of metabolic disease” (Inovobiologic Inc., priority 2012, dated 2017).

Experiments:
[1] = in words; cited from earlier work
Zucker FA/FA Rat Model [2] = experiment: Example 7: hemoglobin glycosylation (HbA1c); assay type: in vivo
Protocol: The extent of hemoglobin glycosylation was determined using a clinical analyzer (e.g., Bayer DCA2000). Blood samples for analysis were collected via tail nick.

Zucker FA/FA Rat Model [3] = experiment: Example 7: lipid determinations; assay type: in vivo; conditions: finding in words, with reference to the cellulose control; listed as JANUVIA alone
Protocol: (§1) A blood sample was collected via retroorbital bleed (under isoflurane anesthesia) during the takedown phase. A portion of this sample was tested for lipid concentrations (total, LDL, and HDL cholesterol and triglycerides) using an analyzer (e.g., Polymer Technology Systems CardioChek PA). Plasma was separated by centrifugation and flash-frozen for DPPIV activity determination. The remainder was prepared for comprehensive clinical chemistry analysis.

Zucker FA/FA Rat Model [4] = experiment: Example 7: necropsy histopathology of liver, kidney and pancreas; assay type: in vivo; conditions: week 7 necropsy
Protocol: Rats were fasted overnight and given their regular sitagliptin treatment in the morning. Following the in-life procedures, rats were anesthetized with isoflurane, and a blood sample was collected via cardiac puncture. No peptidase inhibitors were used. Following sample collection, a limited necropsy was performed. A section of ileum (approximately one inch, collected one inch rostral to the cecum) was rinsed in chilled saline and flash frozen; this sample was analyzed for DPPIV mRNA. One kidney was flash-frozen for DPPIV mRNA analysis; one liver lobe was flash frozen for DPPIV activity and mRNA analysis. The pancreas (collected as a pancreatic pluck, with associated tissue including the remainder of the intestine), one liver lobe and one kidney were post-fixed for staining with hematoxylin and eosin. One liver lobe was snap-frozen for staining with Sudan Black. The tissue samples were forwarded to Histo-Scientific Research Laboratories Inc. (Mount Jackson, Va.) for histological processing and for pathological evaluation by a board-certified pathologist. The pathology analysis was based on the gross and microscopic evaluation of the liver (two lobes), right kidney and pancreas from 39 male rats.

Zucker FA/FA Rat Model [5] = experiment: Example 7: body composition by dual-energy X-ray absorptiometry (DEXA); assay type: in vivo
Protocol: Body composition was measured using dual-energy X-ray absorptiometry (DEXA) of the carcasses at the end of the study (i.e., after a limited necropsy for histopathology samples). The primary endpoints were fat mass, lean mass and bone mineral density. Tissue composition (i.e., % body fat) and fat free mass were also reported, but the information on these measurements was redundant with other measures.

Zucker FA/FA Rat Model [6] = experiment: Example 7: fasted oral glucose tolerance test (OGTT), glucose and serum insulin; assay type: in vivo; conditions: week 6, 16 h fasted
Description: The remainder of the sample was allowed to clot, and centrifuged to separate serum. Serum samples were frozen for insulin analysis.

Zucker FA/FA Rat Model [7] = experiment: Example 7: non-fasted and 16 h fasted blood glucose; assay type: in vivo
Protocol: Glucose concentrations were determined using a hand-held glucose meter (e.g., Bayer Asencia Elite). Blood was collected via tail nick following sitagliptin administration; one sample was collected when food was available for the previous 24 hours (non-fasted), and one sample was collected on another day when food was not available overnight (16 h fasted).

Zucker FA/FA Rat Model [8] = experiment: Example 7: clinical chemistry of terminal blood sample; assay type: in vivo
Protocol: as §1

Zucker FA/FA Rat Model [9] = experiment: Example 7: body weight and food consumption; assay type: in vivo
Protocol: 44 young adult (9 week old) male rats (Zucker ZDF/Crl-Lepr^fa/fa), were obtained from Charles River Laboratories, Kingston, N.Y. […] The rats were housed in cages which conformed to size standards in Guide for the Care and Use of Laboratory Animals (Nat'l Res. Council, 1996). Bedding was changed at least twice per week. The animals were maintained at a temperature range of 18-22° C., humidity 44-68%, and a photoperiod of 12 hour light/dark cycle. The rats were acclimated for 4 days prior to the start of the study. Each animal was given a sequential number and was uniquely identified with a stainless steel ear tag or other appropriate, permanent method. Morbidity and mortality checks were carried out twice daily during the study. The animals were randomly assigned to one of four groups: (1) Control 5% cellulose fiber/chow [C]; (2) 5% PGX/chow [PGX]; […] Filtered tap water was available ad libitum. The test diets were nearly isoenergetic (PGX diet provided 3.98 kcal/g and cellulose diet provided 3.90 kcal/g). […] Sitagliptin was administered in the morning, with samples and data collected after treatment.

[10] = finding in words, with reference to the cellulose control, listed as JANUVIA alone
[11] = finding in words, with reference to the cellulose control

Structure (SMILES): N[C@@H](CC(=O)N1CCn2c(nnc2C(F)(F)F)C1)Cc1cc(F)c(F)cc1F [Sitagliptin phosphate monohydrate, 7-[(3R)-3-amino-1-oxo-4-(2,4,5-trifluorophenyl)buty]-5,6,7,8-tetrahydro-3-(trifluoromethyl)-1,2,4-triazolo[4,3-a]pyrazine phosphate (1:1) monohydrate]
- Solubility in water [1]: soluble in water

Structure (SMILES): N[C@@H](CC(=O)N1CCn2c(nnc2C(F)(F)F)C1)Cc1cc(F)c(F)cc1F [Cellulose-JANUVIA, (R)-4-oxo-4-[3-(trifluoromethyl)-5,6-dihydro[1,2,4]triazolo[4,3-a]pyrazin-7(8H)-yl]-1-(2,4,5-trifluorophenyl)butan-2-amine]
- Hemoglobin glycosylation (Zucker FA/FA Rat Model [2]; Baseline): 4.4 ± 0.1%
- Hemoglobin glycosylation (Zucker FA/FA Rat Model [2]; Week 6): 6.8 ± 0.4%
- total cholesterol (week 7) (Zucker FA/FA Rat Model [3]): not effective to lower blood cholesterol
- Kidney: degeneration/regeneration, tubules, group incidence (Zucker FA/FA Rat Model [4]; animals affected/examined): 9/9
- Kidney: dilatation, tubules, group incidence (Zucker FA/FA Rat Model [4]; animals affected/examined): 9/9
- Kidney: dilation, renal pelvis, group incidence (Zucker FA/FA Rat Model [4]; animals affected/examined): 9/9
- Kidney: inflammation, renal pelvis, group incidence (Zucker FA/FA Rat Model [4]; animals affected/examined): 2/9
- Kidney: mesangial expansion, group incidence (Zucker FA/FA Rat Model [4]; animals affected/examined): 9/9
- Kidney: mineralization, renal pelvis, group incidence (Zucker FA/FA Rat Model [4]; animals affected/examined): 2/9
- Liver: Sudan black positive hepatocytes, group incidence (Zucker FA/FA Rat Model [4]; animals affected/examined): 9/9
- Liver: cystic hepatocytes degeneration with fibrosis, group incidence (Zucker FA/FA Rat Model [4]; animals affected/examined): 1/9
- Liver: hepatic focal infarction, group incidence (Zucker FA/FA Rat Model [4]; animals affected/examined): 1/9
- Liver: vacuolation, hepatocytes, macrovesicular, group incidence (Zucker FA/FA Rat Model [4]; animals affected/examined): 7/9
- Liver: vacuolation, hepatocytes, microvesicular, group incidence (Zucker FA/FA Rat Model [4]; animals affected/examined): 9/9
- Pancreas: fibrosis, islets, group incidence (Zucker FA/FA Rat Model [4]; animals affected/examined): 9/9
- Pancreas: hemorrhage/hemosiderin, islets, group incidence (Zucker FA/FA Rat Model [4]; animals affected/examined): 9/9
- Pancreas: hypertrophy, islets, group incidence (Zucker FA/FA Rat Model [4]; animals affected/examined): 9/9
- Pancreas: islet cell degeneration, group incidence (Zucker FA/FA Rat Model [4]; animals affected/examined): 9/9
- Pancreas: mononuclear cell infiltrate, islets, group incidence (Zucker FA/FA Rat Model [4]; animals affected/examined): 9/9
- Pancreas: percent of islet area containing positive insulin positive cells (Zucker FA/FA Rat Model [4]; group average): 40%
- Liver: Sudan black positive hepatocytes, group average score (Zucker FA/FA Rat Model [4]; score 0-5): 2.8
- Kidney: degeneration/regeneration, tubules, group average score (Zucker FA/FA Rat Model [4]; severity score 0-5): 2.3
- Kidney: dilatation, tubules, group average score (Zucker FA/FA Rat Model [4]; severity score 0-5): 2.8
- Kidney: dilation, renal pelvis, group average score (Zucker FA/FA Rat Model [4]; severity score 0-5): 2.3
- Kidney: inflammation, renal pelvis, group average score (Zucker FA/FA Rat Model [4]; severity score 0-5): 0.8
- Kidney: mesangial expansion, group average score (Zucker FA/FA Rat Model [4]; severity score 0-5): 2.1
- Kidney: mineralization, renal pelvis, group average score (Zucker FA/FA Rat Model [4]; severity score 0-5): 0.2
- Liver: cystic hepatocytes degeneration with fibrosis, group average score (Zucker FA/FA Rat Model [4]; severity score 0-5): 0.1
- Liver: hepatic focal infarction, group average score (Zucker FA/FA Rat Model [4]; severity score 0-5): 0.2
- Liver: vacuolation, hepatocytes, macrovesicular, group average score (Zucker FA/FA Rat Model [4]; severity score 0-5): 0.9
- Liver: vacuolation, hepatocytes, microvesicular, group average score (Zucker FA/FA Rat Model [4]; severity score 0-5): 2.6
- Pancreas: fibrosis, islets, group average score (Zucker FA/FA Rat Model [4]; severity score 0-5): 2.1
- Pancreas: hemorrhage/hemosiderin, islets, group average score (Zucker FA/FA Rat Model [4]; severity score 0-5): 1.1
- Pancreas: hypertrophy, islets, group average score (Zucker FA/FA Rat Model [4]; severity score 0-5): 3.8
- Pancreas: islet cell degeneration, group average score (Zucker FA/FA Rat Model [4]; severity score 0-5): 1.4
- Pancreas: mononuclear cell infiltrate, islets, group average score (Zucker FA/FA Rat Model [4]; severity score 0-5): 1.0
- Fat free mass (Zucker FA/FA Rat Model [5]; DEXA at end of study): 133.0 ± 5.6 g
- Tissue composition (% fat) (Zucker FA/FA Rat Model [5]; DEXA at end of study): 63.3 ± 0.9 % fat
- Lean Mass (terminal) (Zucker FA/FA Rat Model [5]; [10]): did not show an effect on lean body mass
- OGTT serum insulin Baseline (Zucker FA/FA Rat Model [6]; before glucose): 6.6 ± 1.1 ng/mL
- OGTT blood glucose Baseline (Zucker FA/FA Rat Model [6]; before glucose 1 g/kg PO): 331 ± 16.4 mg/dL
- OGTT serum insulin AUC(0-120), baseline-subt (Zucker FA/FA Rat Model [6]; glucose 1 g/kg PO): -3.0 ± 22.7 ng·h/dL
- 16 h fasted blood glucose (Zucker FA/FA Rat Model [7]; Baseline): 98.4 ± 5.4 mg/dL
- Non-fasted blood glucose (Zucker FA/FA Rat Model [7]; Baseline): 231.8 ± 31.2 mg/dL
- 16 h fasted blood glucose (Zucker FA/FA Rat Model [7]; Week 6): 331.1 ± 16.4 mg/dL
- Non-fasted blood glucose (Zucker FA/FA Rat Model [7]; Week 6): 500.9 ± 17.4 mg/dL
- Serum ALT/SGPT (terminal) (Zucker FA/FA Rat Model [8]; [11]): tended to decrease ALT activity
- Serum albumin (terminal) (Zucker FA/FA Rat Model [8]; [11]): did not increase albumin concentrations
- Serum alkaline phosphatase (terminal) (Zucker FA/FA Rat Model [8]; [11]): significantly reduced alkaline phosphatase activity
- total serum protein (terminal) (Zucker FA/FA Rat Model [8]; [11]): did not increase total protein concentrations
- blood urea nitrogen (terminal) (Zucker FA/FA Rat Model [8]; [10]): tended to decrease BUN
- Calcium (Zucker FA/FA Rat Model [8]; terminal blood sample, week 7): 11.2 ± 0.2 mg/dL
- Creatine kinase (Zucker FA/FA Rat Model [8]; terminal blood sample, week 7): 76.3 ± 12.8 IU/L
- Phosphorus (Zucker FA/FA Rat Model [8]; terminal blood sample, week 7): 6.0 ± 0.2 mg/dL
- Baseline body weight (Zucker FA/FA Rat Model [9]; Baseline): 297.9 ± 3.7 g
- Mean food consumption (Zucker FA/FA Rat Model [9]; averaged for each rat over the study): 22.9 ± 0.7 g/day
- Week 7 body weight (Zucker FA/FA Rat Model [9]; week 7): 411.0 ± 16.1 g
